Experimental data published in ChEMBL document CHEMBL1201861, “Genomics of Drug Sensitity in Cancer screening data, Wellcome Trust Sanger Institute”.

What was measured:
Assay in all cases: cells
23132-87 = format: functional, cell-based, Homo sapiens; conditions: Homo sapiens
Description: SANGER: Inhibition of human 23132-87 cell growth in a cell viability assay.

SNU-423 = format: functional, cell-based, Homo sapiens; conditions: Homo sapiens, SNU-423
Description: SANGER: Inhibition of human SNU-423 cell growth in a cell viability assay.

NCI-H1703 = format: functional, cell-based, Homo sapiens; conditions: Homo sapiens, NCI-H1703;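 further: growth inhibition of NCI-H1703 cells, read out via a cell viability assay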
Description: SANGER: Inhibition of human NCI-H1703 cell growth in a cell viability assay.

HCT-15 = format: functional, cell-based, Homo sapiens; conditions: Homo sapiens, HCT-15;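 further: cell viability readout, IC50 reflecting suppression of HCT-15 cell growth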
Description: SANGER: Inhibition of human HCT-15 cell growth in a cell viability assay.

TGBC11TKB = format: functional, cell-based; conditions: Homo sapiens;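 further: growth inhibition of human TGBC11TKB cells, measured by a cell viability assay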
Description: SANGER: Inhibition of human TGBC11TKB cell growth in a cell viability assay.

BT-549 = format: functional, cell-based; conditions: Homo sapiens
Description: SANGER: Inhibition of human BT-549 cell growth in a cell viability assay.

SW 1116 = format: functional, cell-based; conditions: Homo sapiens;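 further: growth inhibition of SW1116 cells, read out with a cell viability assay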
Description: SANGER: Inhibition of human SW1116 cell growth in a cell viability assay.

NCI-H1573 = format: functional, cell-based; conditions: Homo sapiens;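 further: growth inhibition of NCI-H1573 cells, read out with a cell viability assay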
Description: SANGER: Inhibition of human NCI-H1573 cell growth in a cell viability assay.

MOLT-13 = format: functional, cell-based; conditions: Homo sapiens;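 further: IC50 for suppression of MOLT-13 cell growth, read out with a cell viability assay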
Description: SANGER: Inhibition of human MOLT-13 cell growth in a cell viability assay.

NCI-H522 = format: functional, cell-based, Homo sapiens; conditions: Homo sapiens, NCI-H522;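 further: cell viability assay measuring growth inhibition of human NCI-H522 cells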
Description: SANGER: Inhibition of human NCI-H522 cell growth in a cell viability assay.

NCI-H2291 = format: functional, cell-based; conditions: Homo sapiens
Description: SANGER: Inhibition of human NCI-H2291 cell growth in a cell viability assay.

NCI-H1048 = format: functional, cell-based; conditions: Homo sapiens;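 further: growth inhibition of human NCI-H1048 cells, read out with a cell viability assay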
Description: SANGER: Inhibition of human NCI-H1048 cell growth in a cell viability assay.

G-361 = format: functional, cell-based, Homo sapiens; conditions: Homo sapiens, G-361
CFPAC-1 = format: functional, cell-based; conditions: Homo sapiens;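 further: cell viability readout used to gauge suppression of CFPAC-1 cell proliferation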
Description: SANGER: Inhibition of human CFPAC-1 cell growth in a cell viability assay.

HT55 = format: functional, cell-based, Homo sapiens; conditions: Homo sapiens, HT55;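 further: cell viability readout measuring growth inhibition of human HT55 cells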
Description: SANGER: Inhibition of human HT55 cell growth in a cell viability assay.

ZR-75-30 = format: functional, cell-based; conditions: Homo sapiens;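 further: growth inhibition of ZR-75-30 cells, measured with a cell viability readout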
Description: SANGER: Inhibition of human ZR-75-30 cell growth in a cell viability assay.

OC-314 = format: functional, cell-based; conditions: Homo sapiens
Description: SANGER: Inhibition of human OC-314 cell growth in a cell viability assay.

YH-13 = format: functional, cell-based; conditions: Homo sapiens;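 further: cell viability readout of growth suppression in the human YH-13 cell line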
Description: SANGER: Inhibition of human YH-13 cell growth in a cell viability assay.

HuO9 = format: functional, cell-based, Homo sapiens; conditions: Homo sapiens, HuO9;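 further: growth inhibition of HuO9 cells, read out with a cell viability assay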
Description: SANGER: Inhibition of human HuO9 cell growth in a cell viability assay.

Kasumi 1 = format: functional, cell-based; conditions: Homo sapiens;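 further: growth inhibition of human Kasumi-1 cells, read out by a cell viability assay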
Description: SANGER: Inhibition of human KASUMI-1 cell growth in a cell viability assay.

Compound | IC50 (23132-87) [nM] | IC50 (SNU-423) [nM] | IC50 (NCI-H1703) [nM] | IC50 (HCT-15) [nM] | IC50 (TGBC11TKB) [nM] | IC50 (BT-549) [nM] | IC50 (SW 1116) [nM] | IC50 (NCI-H1573) [nM] | IC50 (MOLT-13) [nM] | IC50 (NCI-H522) [nM] | IC50 (NCI-H2291) [nM] | IC50 (NCI-H1048) [nM] | IC50 (G-361) [nM] | IC50 (CFPAC-1) [nM] | IC50 (HT55) [nM] | IC50 (ZR-75-30) [nM] | IC50 (OC-314) [nM] | IC50 (YH-13) [nM] | IC50 (HuO9) [nM] | IC50 (Kasumi 1) [nM]
CCOc1nc(NC(=O)Cc2cc(OC)ccc2OC)cc(N)c1C#N | > 10000 | > 10000 | > 10000 | > 10000 | > 10000 | > 10000 | > 10000 | > 10000 | > 10000 | > 10000 | > 10000 | > 10000 | > 10000 | > 10000 | > 10000 | > 10000 | > 10000 | > 10000 | > 10000 | 
CC(=O)O[C@@H]1[C@@H](OC(C)=O)[C@@H](O)[C@H](Oc2c(-c3ccc(O)cc3)oc3cc(O)cc(O)c3c2=O)O[C@H]1C | > 10000 |  | > 10000 | > 10000 | > 10000 | > 10000 | > 10000 | > 10000 | > 10000 | > 10000 | > 10000 | > 10000 | > 10000 | > 10000 |  | > 10000 | > 10000 | > 10000 | > 10000 | 
COc1cc(F)c(F)c(Nc2ccc(I)cc2F)c1NS(=O)(=O)C1(CC(O)CO)CC1 (stereo not given) |  | 4930 |  |  | > 5000 | > 5000 | > 5000 | > 5000 | > 5000 | > 5000 | 397 | > 5000 |  | > 5000 | 2430 | > 5000 | > 5000 | 2680 | > 5000 | 
O=C1N=C(NCc2cccs2)S/C1=C\c1ccc2ncccc2c1 |  | > 5000 |  |  | > 5000 | > 5000 | > 5000 | > 5000 | > 5000 | > 5000 | > 5000 | > 5000 |  | > 5000 | > 5000 | > 5000 | > 5000 | 4760 | > 5000 | 
CN(C)C/C=C/C(=O)Nc1cc2c(Nc3ccc(F)c(Cl)c3)ncnc2cc1O[C@H]1CCOC1 [AFATINIB] | 319 | > 500 | > 500 | > 500 | > 500 | > 500 | > 500 | > 500 | 240 |  | > 500 | > 500 | > 500 | > 500 | > 500 | 95.5 | > 500 | > 500 | > 500 | 9.11
COc1ccc(-c2ccc3c(N4CCOC[C@@H]4C)nc(N4CCOC[C@@H]4C)nc3n2)cc1CO [AZD-8055] |  | 814 |  |  | > 2000 | > 2000 | > 2000 | 902 | 665 | 630 | > 2000 | 586 |  | > 2000 | > 2000 | > 2000 | 1300 | 549 | 407 | 
O=C(NOCC1CC1)c1ccc(F)c(F)c1Nc1ccc(I)cc1Cl [CI-1040] | 5170 |  | > 10000 | > 10000 | > 10000 | > 10000 | 1560 | > 10000 | 5070 |  | 1330 | > 10000 | 368 | > 10000 |  | > 10000 | > 10000 | > 10000 | > 10000 | 399
Nc1ccn([C@@H]2O[C@H](CO)[C@@H](O)[C@@H]2O)c(=O)n1 [CYTARABINE] | 319 | 881 | 49.8 | > 2000 | 1730 | 531 | > 2000 | > 2000 | > 2000 |  | > 2000 | 389 | > 2000 | 1060 | > 2000 | > 2000 | 399 | 328 | > 2000 | > 2000
CC(=O)O[C@@]12CO[C@@H]1C[C@H](O)[C@@]1(C)C(=O)[C@H](O)C3=C(C)[C@@H](OC(=O)[C@H](O)[C@@H](NC(=O)OC(C)(C)C)c4ccccc4)C[C@@](O)([C@@H](OC(=O)c4ccccc4)[C@H]21)C3(C)C [DOCETAXEL] | 1.55 | 8.57 | 1.57 |  | 4.69 |  | > 10 | 6.07 | > 10 |  | > 10 | 1.92 | > 10 | > 10 | > 10 | > 10 | 2.56 | 0.791 | 3.46 | 5.11
O=c1cc(-c2cccc3c2Sc2ccccc2S3)oc(N2CCOCC2)c1 [KU-55933] | > 10000 | > 10000 | > 10000 | > 10000 | > 10000 | > 10000 | > 10000 | > 10000 |  | > 10000 | > 10000 | > 10000 | > 10000 | > 10000 | > 10000 | > 10000 | > 10000 | > 10000 | > 10000 | 
COc1ccc(C2=N[C@@H](c3ccc(Cl)cc3)[C@@H](c3ccc(Cl)cc3)N2C(=O)N2CCNC(=O)C2)c(OC(C)C)c1 [NUTLIN-3] |  | > 8000 |  |  | > 8000 | > 8000 | > 8000 | > 8000 | > 8000 | > 8000 | > 8000 | > 8000 |  | > 8000 | > 8000 | > 8000 | > 8000 | > 8000 | > 8000 | 
Cn1cc(C2=C(c3ccc(Cl)cc3Cl)C(=O)NC2=O)c2ccccc21 [SB-216763] | > 10000 |  | > 10000 | > 10000 | > 10000 | 5290 | > 10000 | > 10000 |  |  | > 10000 | > 10000 | > 10000 | > 10000 |  | > 10000 | > 10000 | > 10000 | > 10000 | 
C=CCNC1=C2C[C@@H](C)C[C@H](OC)[C@H](O)[C@@H](C)/C=C(\C)[C@H](OC(N)=O)[C@@H](OC)/C=C\C=C(/C)C(=O)NC(=CC1=O)C2=O [TANESPIMYCIN] | 69.5 | > 1000 | 414 | > 1000 | 109 | 118 | > 1000 | 456 | > 1000 | 878 | 479 | 290 | 227 | 375 | > 1000 | > 1000 | 167 | 57.2 | 75.9 | 
